Test results taken from BindingDB's records for doi:10.1021/jm0702377 (University of Liverpool, 2007).

Each molecule was assayed against T1, Alpha-methylacyl-CoA racemase (Rattus norvegicus, UniProt P70473) (assay: AMACR Inhibition Assay). Details: pH 7; 37 °C.
T1 sequence (P70473 whole entry): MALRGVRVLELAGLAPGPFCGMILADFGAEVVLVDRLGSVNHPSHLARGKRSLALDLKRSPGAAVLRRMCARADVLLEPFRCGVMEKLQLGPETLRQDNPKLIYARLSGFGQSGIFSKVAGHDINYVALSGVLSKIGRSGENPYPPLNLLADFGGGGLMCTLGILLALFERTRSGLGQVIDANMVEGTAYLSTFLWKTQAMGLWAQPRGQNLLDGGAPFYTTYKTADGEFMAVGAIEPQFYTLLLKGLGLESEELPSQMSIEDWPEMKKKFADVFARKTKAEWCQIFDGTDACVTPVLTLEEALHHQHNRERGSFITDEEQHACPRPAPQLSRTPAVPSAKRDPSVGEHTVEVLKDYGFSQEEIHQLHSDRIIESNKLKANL
Procedure: AMACR activity was determined by monitoring the interconversion of the (25R/S)-isomer of THC-CoA. Reaction product was analyzed by resolution of (25S)-or (25R)-THC-CoA using HPLC, which was carried out with a reversed-phase C18-column and a linear gradient of methanol in potassium phosphate buffer (50 mM, pH 5.3). Kinetic parameters were determined using direct linear plot analysis.

Structure (SMILES)	Ki
CCCCCCCCCCCCC[C@@H](F)[C@H](C)C(=O)SCCNC(=O)CCNC(=O)C(O)C(C)(C)COP(=O)(O)OP(=O)(O)OC[C@H]1O[C@@H](n2cnc3c(N)ncnc32)[C@H](O)[C@@H]1OP(=O)(O)O (stereo partly drawn) [(2S,3R)-3-fluoro-2-methylhexadecanoyl-CoA, 6]	2.3 µM
CCCCCCCCCCCCCC(C(=O)SCCNC(=O)CCNC(=O)C(O)C(C)(C)COP(=O)(O)OP(=O)(O)OC[C@H]1O[C@@H](n2cnc3c(N)ncnc32)[C@H](O)[C@@H]1OP(=O)(O)O)C(F)F (some centres not stated) [2-Difluoromethylpentadecanoyl-CoA, 4]	20 µM
CCCCCCCCCCCCC(C(=O)SCCNC(=O)CCNC(=O)C(O)C(C)(C)COP(=O)(O)OP(=O)(O)OC[C@H]1O[C@@H](n2cnc3c(N)ncnc32)[C@H](O)[C@@H]1OP(=O)(O)O)C(F)(F)F (some centres not stated) [2-Trifluoromethyltetradecanoyl-CoA, 3]	0.9 µM
CCCCCCCCCCCCC(C)C(=O)SCCNC(=O)CCNC(=O)C(O)C(C)(C)COP(=O)(O)OP(=O)(O)OC[C@H]1O[C@@H](n2cnc3c(N)ncnc32)[C@H](O)[C@@H]1OP(=O)(O)O (some centres not stated) [2-methylmyristoyl CoA, 22]	137 µM

Other lines, results leading:

Ki	Structure (SMILES)
45 µM	CCCCCCC(C)C(=O)SCCNC(=O)CCNC(=O)C(O)C(C)(C)COP(=O)(O)OP(=O)(O)OC[C@H]1O[C@@H](n2cnc3c(N)ncnc32)[C@H](O)[C@@H]1OP(=O)(O)O (stereo partly drawn) [{[(2R,3S,4R,5R)-5-(6-amino-9H-purin-9-yl)-4-hydroxy-2-({[hydroxy({[hydroxy(3-hydroxy-2,2-dimethyl-3-{[2-({2-[(2-methyloctanoyl)sulfanyl]ethyl}carbamoyl)ethyl]carbamoyl}propoxy)phosphoryl]oxy})phosphoryl]oxy}methyl)oxolan-3-yl]oxy}phosphonic acid]
1.3 µM	CCCCCCCCCCCCC[C@H](F)[C@@H](C)C(=O)SCCNC(=O)CCNC(=O)C(O)C(C)(C)COP(=O)(O)OP(=O)(O)OC[C@H]1O[C@@H](n2cnc3c(N)ncnc32)[C@H](O)[C@@H]1OP(=O)(O)O (stereo partly drawn) [((2R,3S)-3-Fluoro-2-methylhexadecanoyl-CoA, 5]
3.8 µM	C[C@@H](CC[C@H](F)[C@@H](C)C(=O)SCCNC(=O)CCNC(=O)C(O)C(C)(C)COP(=O)(O)OP(=O)(O)OC[C@H]1O[C@@H](n2cnc3c(N)ncnc32)[C@H](O)[C@@H]1OP(=O)(O)O)[C@H]1CC[C@H]2[C@@H]3[C@H](O)C[C@@H]4C[C@H](O)CC[C@]4(C)[C@H]3C[C@H](O)[C@]12C (some centres not stated) [THC-CoA Analogue, 7]
